This note sets out measurements from patent US8178699B2, “Modulators of CCR9 receptor and methods of use thereof” (Pfizer Inc., priority 2008, dated 2012).

The IC50 is the midpoint of a concentration-inhibition curve.

Where a name gives a salt, the structure may show the parent alone.

For this assay, the target named is T1, human CCR9 receptor (Homo sapiens, UniProt P51686).
T1 construct: expressed in transfected cells
T1 sequence (P51686 1-369): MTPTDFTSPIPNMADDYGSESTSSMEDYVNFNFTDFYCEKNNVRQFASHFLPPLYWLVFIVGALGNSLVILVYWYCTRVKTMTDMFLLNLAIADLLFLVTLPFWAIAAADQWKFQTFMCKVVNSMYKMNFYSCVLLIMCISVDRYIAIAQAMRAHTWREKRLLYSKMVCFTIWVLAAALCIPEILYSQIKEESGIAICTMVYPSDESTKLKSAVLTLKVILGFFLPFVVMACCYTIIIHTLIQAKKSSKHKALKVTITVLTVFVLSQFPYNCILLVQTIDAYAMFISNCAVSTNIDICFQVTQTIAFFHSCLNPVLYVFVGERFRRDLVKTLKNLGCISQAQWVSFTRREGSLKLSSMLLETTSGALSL
The experiment in a line: CCR9 FLIPR/FlexStation Assay (inhibition of TECK induced calcium mobilization). Format: cell-based. To be noted: CCR9 antagonist activity; TECK induced calcium mobilization in CCR9-Flp-CHO cells stably over expressing human CCR9; rhTECK at EC70; read-out: Binding IC50. An excerpt: Exemplary methods are described in US Publication Nos. US2004/0180892 and US2005/0049286, which are incorporated herein by reference. An exemplary assay for determining CCR9 antagonist activity of the compounds provided herein is CCR9 FLIPR/FlexStation Assay. In certain embodiments, the following protocol is used for the assay:
CCR9 FLIPR/FlexStation Assay Protocol
Calcium assay in FLIPR/FlexStation determines inhibitors of TECK induced calcium mobilization in CCR9-Flp-CHO cells that stably over express human CCR9 receptor. CCR9-Flp-CHO cells are seeded at 25,000 cells/well in a clear bottom, black wall 96-well plate (Greiner #655090) one day prior to assay. Cells are grown in a tissue culture incubator at 37° C. with 5% CO2 for 18 to 24 hours.
Wash buffer and dye loading buffer are prepared fresh each time the assay is performed. Wash buffer is prepared according to the following protocol: 20 ml 10×HBSS (Invitrogen Gibco #14065-056), 4 ml 1M HEPES (Sigma H3784), 174 ml sterile deionized water; then add 140 mg probenecid (Sigma P8761) dissolved in 2 ml 1M NaOH (Fisher S318) to solution and pH to 7.4. This wash buffer contains 1×HBSS, 20 mM HEPES and 2.5 mM probenecid. For one 96-well plate, dye loading buffer is prepared as following: 11 ml wash buffer, 44 μl Fluo-4/pluoronic acid mix (prepared from 22 μL aliquot of 2 mM Fluo-4 (Molecular Probes F14202, 1 mg/tube)+22 μl 20% pluronic F-127 (Molecular Probes P3000MP).
Cells are loaded with dye according to the protocol below:
1. Prepare wash buffer with 1×HBSS/HEPES at room temperature
2. Prepare loading buffer (keep in dark)
3. Aspirate culture media and wash with 100 μl wash buffer per well×1
4. Add 100 μl dye loading buffer to each well
5. Incubate at 37° C. for 30 minutes
6. Aspirate loading buffer
7. Wash with 100 μl wash buffer per well×3
8. Add 100 μl wash buffer per well
9. Incubate at 37° C. for 30 minutes
10. Assay plate with FLIPR or FlexStation
10 mM stock compounds in DMSO are prepared and diluted in DMSO to 1 mM. Compounds are diluted in wash buffer to make 8 point series dilutions containing same final concentration of DMSO (1%). Compounds are tested in duplicate wells for each point. Ligand rhTECK (R&D Systems 334-TK) was diluted to 6× of its EC70 with wash buffer. Appropriate amount of 6× ligand is added to each well. Data is analyzed using XLfit3 software to calculate IC50 value of antagonist activity for each compound.
CCR9 antagonist activity of exemplary compounds was determined using CCR9 FLIPR/FlexStation Assay as described in Section 4.4 and is provided in Table 1 below. The IC50 for the compounds are represented as follows: A≦100 nM; B>100-500 nM; C>500 nM.
A general note: A change in cytosolic calcium serves as a functional read-out for many receptors and channels.

Turning to `O=C(O)c1sccc1NS(=O)(=O)c1ccc(-n2cccn2)cc1` [Example 31, 3-[4-(1H-pyrazol-1-yl)phenylsulfonamido]thiophene-2-carboxylic acid, disodium salt], the IC50 is greater than 500 nM.
Consider `Cc1cc(S(=O)(=O)Nc2ccsc2C(=O)O)ccc1N1CCCC1` [Example 32, 3-(3-methyl-4-(pyrrolidin-1-yl)phenylsulfonamido)thiophene-2-carboxylic acid, disodium salt], for which the IC50 was greater than 500 nM.
Regarding `O=C(O)c1sccc1NS(=O)(=O)c1ccc2c(c1)CCC2` [Example 33, 3-(2,3-dihydro-1H-indene-5-sulfonamido)thiophene-2-carboxylic acid, disodium salt], the IC50 is greater than 500 nM.
In the case of `O=C(O)c1sccc1NS(=O)(=O)c1ccc(C2CCCCC2)cc1` [Example 34, 3-(4-cyclohexylphenylsulfonamido)thiophene-2-carboxylic acid, disodium salt], the IC50 fell in the range of 100 to 500 nM.
For the compound `O=C(O)c1sccc1NS(=O)(=O)c1ccc(F)cc1C1CCCC1` [Example 35, 3-(2-cyclopentyl-4-fluorophenylsulfonamido)thiophene-2-carboxylic acid, disodium salt], the IC50 was greater than 500 nM.
Turning to `O=C(O)c1sccc1NS(=O)(=O)c1ccc(C2CCCC2)cc1F` [Example 36, 3-(4-cyclopentyl-2-fluorophenylsulfonamido)thiophene-2-carboxylic acid, disodium salt], the half-maximal inhibitory concentration (IC50) is no more than 100 nM.
Regarding `CC(C)c1ccc(S(=O)(=O)Nc2ccsc2C(=O)O)cc1` [Example 37, 3-[4-(iso-propylphenyl)sulfonamido]thiophene-2-carboxylic acid, disodium salt], the IC50 was 100 to 500 nM.
As to `CCCCc1ccc(S(=O)(=O)Nc2ccsc2C(=O)O)cc1` [Example 38, 3-[4-(n-butylphenyl)sulfonamide]thiophene-2-carboxylic acid, disodium salt], the 50% inhibitory concentration (IC50) was no more than 100 nM.
As for `CCc1ccccc1-c1cccc(S(=O)(=O)Nc2ccsc2C(=O)O)c1` [Example 39, 3-(2′-ethylbiphenyl-3-ylsulfonamido)thiophene-2-carboxylic acid, disodium salt], the half-maximal inhibitory concentration (IC50) was greater than 500 nM.
`O=C(O)c1sccc1NS(=O)(=O)c1cccc(-c2ccccc2)c1` [Example 40, 3-(biphenyl-3-ylsulfonamido)thiophene-2-carboxylic acid, disodium salt]: the half-inhibitory concentration (IC50) was greater than 500 nM.
As for `Cc1cccc(C)c1-c1cccc(S(=O)(=O)Nc2ccsc2C(=O)O)c1` [Example 41, 3-(2′,6′-dimethylbiphenyl-3-ylsulfonamido)thiophene-2-carboxylic acid, disodium salt], the figure is greater than 500 nM.
Take `Cc1cc(C)cc(-c2cccc(S(=O)(=O)Nc3ccsc3C(=O)O)c2)c1` [Example 42, 3-(3′,5′-dimethylbiphenyl-3-ylsulfonamido)thiophene-2-carboxylic acid, disodium salt]: the IC50 was greater than 500 nM.
Take `CC(C)c1ccccc1-c1cccc(S(=O)(=O)Nc2ccsc2C(=O)O)c1` [Example 43, 3-(2′-isopropylbiphenyl-3-ylsulfonamido)thiophene-2-carboxylic acid, disodium salt]: the 50% inhibitory concentration (IC50) was greater than 500 nM.
Turning to `CCCOc1ccccc1-c1cccc(S(=O)(=O)Nc2ccsc2C(=O)O)c1` [Example 44, 3-(2′-propoxybiphenyl-3-ylsulfonamido)thiophene-2-carboxylic acid, disodium salt], the IC50 is greater than 500 nM.
With `CC(C)(C)c1ccc(S(=O)(=O)Nc2ccsc2C(=O)O)c(-c2ccncc2Cl)c1` [Example 45, 3-[4-tert-Butyl-2-(3-chloropyridin-4-yl)phenyl-sulfonamido]thiophene-2-carboxylic acid] the figure was greater than 500 nM; with `CC(C)(C)c1ccc(S(=O)(=O)Nc2ccsc2C(=O)O)c(-c2ccccc2)c1` [Example 46, 3-(5-tert-butylbiphenyl-2-ylsulfonamido)thiophene-2-carboxylic acid, disodium salt], greater than 500 nM.
For `CC(C)(C)c1ccc(S(=O)(=O)Nc2ccsc2C(=O)O)c(N2CCCCC2)c1` [Example 47, 3-[4-tert-Butyl-2-(piperidin-1-yl)phenylsulfonamido]thiophene-2-carboxylic acid], the IC50 fell in the range of 100 to 500 nM.
As for `CCc1cc(C(C)(C)C)ccc1S(=O)(=O)Nc1ccsc1C(=O)O` [Example 48, 3-(4-tert-butyl-2-ethylphenylsulfonamido)thiophene-2-carboxylic acid, disodium salt], the concentration for half-maximal inhibition (IC50) was no more than 100 nM.
Take `CC1(C)CCC(C)(C)c2cc(S(=O)(=O)Nc3ccsc3C(=O)O)ccc21` [Example 49, 3-(5,5,8,8-tetramethyl-5,6,7,8-tetrahydronaphthalene-2-sulfonamido)thiophene-2-carboxylic acid, disodium salt]: the IC50 is greater than 500 nM.
In the case of `O=C(O)c1sccc1NS(=O)(=O)c1ccc(OC(F)(F)F)cc1Cl` [Example 50, 3-[2-chloro-4-(trifluoromethoxy)phenylsulfonamido]thiophene-2-carboxylic acid, disodium salt], the 50% inhibitory concentration (IC50) was no more than 100 nM.
With `O=C(O)c1sccc1NS(=O)(=O)c1c(Cl)cc(C(F)(F)F)cc1Cl` [Example 51, 3-[2,6-dichloro-4-(trifluoromethyl)phenylsulfonamido]thiophene-2-carboxylic acid, disodium salt], the IC50 is greater than 500 nM.
Regarding `CC(C)(C)c1ccc(S(=O)(=O)Nc2ccsc2C(=O)O)c(/C=C/C2CC2)c1` [Example 52, 3-[4-tert-butyl-2-(2-cyclopropylvinyl)phenylsulfonamido]thiophene-2-carboxylic acid, disodium salt], the IC50 was no more than 100 nM.
As for `CC(C)(C)c1ccc(S(=O)(=O)Nc2ccsc2C(=O)O)c(-c2cccc(Cl)c2)c1` [Example 53, 3-(5-tert-butyl-3′-chlorobiphenyl-2-ylsulfonamido)thiophene-2-carboxylic acid, disodium salt], the figure is greater than 500 nM; as for `CC(C)(C)c1ccc(S(=O)(=O)Nc2ccsc2C(=O)O)c(-c2cccc(F)c2)c1` [Example 54, 3-(5-tert-butyl-3′-fluorobiphenyl-2-ylsulfonamido)thiophene-2-carboxylic acid, disodium salt], 100 to 500 nM; as for `COC/C=C/c1cc(C(C)(C)C)ccc1S(=O)(=O)Nc1ccsc1C(=O)O` [Example 55, 3-[4-tert-butyl-2-(3-methoxyprop-1-enyl)phenylsulfonamido]thiophene-2-carboxylic acid, disodium salt], 100 to 500 nM.
For `CCCc1cc(C(C)(C)C)ccc1S(=O)(=O)Nc1ccsc1C(=O)O` [Example 56, 3-(4-tert-butyl-2-propylphenylsulfonamido)thiophene-2-carboxylic acid, disodium salt], the half-inhibitory concentration (IC50) is no more than 100 nM.
Regarding `CC(C)(C)c1ccc(S(=O)(=O)Nc2ccsc2C(=O)O)c(CCC2CC2)c1` [Example 57, 3-[4-tert-Butyl-2-(2-cyclopropylethyl)phenylsulfonamido]thiophene-2-carboxylic acid, disodium salt], the IC50 was no more than 100 nM.
As to `CCCCCc1cc(C(C)(C)C)ccc1S(=O)(=O)Nc1ccsc1C(=O)O` [Example 58, 3-(4-tert-butyl-2-pentylphenylsulfonamido)thiophene-2-carboxylic acid, disodium salt], the IC50 is 100 to 500 nM.
For the compound `COCCCc1cc(C(C)(C)C)ccc1S(=O)(=O)Nc1ccsc1C(=O)O` [Example 59, 3-[4-tert-butyl-2-(3-methoxypropyl)phenylsulfonamido]thiophene-2-carboxylic acid, disodium salt], the half-inhibitory concentration (IC50) lay in the range of 100 to 500 nM.
